Results published in ChEMBL document CHEMBL3393031, “Inhibitory constituents of Sophora tonkinensis on nitric oxide production in RAW 264.7 macrophages” (Bioorg Med Chem Lett, 2015).

Columns and labels:
[1] = tested on: RAW264.7; assay: Antiinflammatory activity in mouse RAW264.7 cells assessed as inhibition of LPS-induced NO production after 24 hrs by Griess assay; format: functional, cell-based; conditions: RAW264.7, 24 h
[2] = tested on: RAW264.7; assay: Cytotoxicity against mouse RAW264.7 cells after 24 hrs by MTT assay; format: cell-based; conditions: raw264.7, 24 h

What does the source list for O=c1cc(-c2ccc(O)cc2)oc2cc(O)ccc12?
IC50 [1]: > 50 µM; Activity [2]: Non-toxic

With CC(C)=CCc1cc([C@@H]2CC(=O)c3ccc(O)c(CC=C(C)C)c3O2)cc(CC=C(C)C)c1O as the compound, how does the IC50 [1] read?
The IC50 was 28.1 µM.

And the Activity [2]?
Its Activity is “Non-toxic”.

C/C=C/C(=O)OC[C@H]1O[C@@H](Oc2ccc3c(c2)OC[C@H]2c4cc5c(cc4O[C@@H]32)OCO5)[C@H](O)[C@@H](O)[C@@H]1O was tested. Which IC50 [1] did it give?
The IC50 was 33 µM.

What about the Activity [2] of the same compound?
Its Activity is “Non-toxic”.

For CC(C)=CCc1cc([C@@H]2CC(=O)c3ccc(O)c(CC=C(C)C)c3O2)cc2c1OC(C)(C)C=C2, which IC50 [1] is on record?
The IC50 was 13.6 µM.

And the Activity [2]?
The Activity was “Non-toxic”.

Which results are given for COc1cc([C@@H]2OC[C@@H]3[C@H]2CO[C@H]3c2ccc(O)c(OC)c2)ccc1O [(+)-PINORESINOL]?
IC50 [1]: 45.1 µM; Activity [2]: Non-toxic

With COc1ccc(-c2coc3cc(O)ccc3c2=O)cc1O [CALYCOSIN] as the compound, how does the IC50 [1] read?
The IC50 was greater than 50 µM.

And the Activity [2]?
The Activity was “Non-toxic”.

What does the source list for O=c1c(-c2ccc(O)cc2)coc2cc(O)cc(O)c12 [GENISTEIN]?
IC50 [1]: > 50 µM; Activity [2]: Non-toxic

For Oc1ccc2c(c1)OC[C@H]1c3cc4c(cc3O[C@@H]21)OCO4 [MAACKIAIN], which IC50 [1] is on record?
The IC50 was 27 µM.

What about the Activity [2] of the same compound?
The Activity was “Non-toxic”.

COc1cc([C@H]2OC[C@@H]3C(c4cc(OC)c(O)c(OC)c4)OC[C@H]23)ccc1O (some centres not stated) [MEDIORESINOL] was tested. Which IC50 [1] did it give?
The IC50 was 41 µM.

And the Activity [2]?
Its Activity is “Non-toxic”.

How did the IC50 [1] turn out when N=C(N)NN [PIMAGEDINE] was run?
Its IC50 is 18.7 µM.

What about the Activity [2] of the same compound?
The Activity was “Non-toxic”.

Which IC50 [1] does the source give for COc1cc([C@H]2OC[C@H]3[C@@H]2CO[C@@H]3c2cc(OC)c(O)c(OC)c2)cc(OC)c1O [SYRINGARESINOL] here?
Its IC50 is greater than 50 µM.

And the Activity [2]?
Its Activity is “Non-toxic”.
